According to patent US4638070A, “Heterocyclic amino-alcohol derivatives” (Continental Pharma, priority 1980, dated 1987):

Key:
[1] = Acute toxicity, oral, LD50 (Litchfield and Wilcoxon); settings: mouse, in vivo, fasted male mice, confidence limits p=95% in brackets
Experimental: (1) The acute toxicity was determined on fasted male mice. The tested substances were orally administered and LD50 values (lethal dose for 50% of animals) were calculated according to the method of Litchfield and Wilcoxon (J. Pharmacol. exp. Ther. 96, 94-113, 1949). These LD50 values are given in mg/kg and also, when possible, with their confidence limits for p=95%.

[2] = system: guinea-pig ileum (histamine contractions); assay: Antispasmodic activity in vitro, contractions caused by histamine; settings: added 15 minutes before spasm-producing agent
Experimental: (§1) (4) The antispasmodic activity was measured in vitro, on guinea-pig ileum, the contractions of which were caused by histammne (Hist.), acetylcholine (Achol) or barium chloride (BaCl2). The tested products were added to perfusion bath 15 minutes before the spasm-producing agents.
(§2) The dose is given in micograms (μg) per ml of bath causing complete spasm inhibition.

[3] = system: guinea-pig ileum (acetylcholine contractions); assay: Antispasmodic activity in vitro, contractions caused by acetylcholine; settings: added 15 minutes before spasm-producing agent
Experimental: as §1, §2

[4] = system: guinea-pig ileum (barium chloride contractions); assay: Antispasmodic activity in vitro, contractions caused by barium chloride; settings: added 15 minutes before spasm-producing agent
Experimental: as §1, §2

femoral artery = assay: Vasodilator activity, femoral artery (technique of perfused paw); format: in vivo; set-up: key: O: no action; +: slight activity; ++: effect equal to half the effect of papaverine; +++: effect equal to that of papaverine; ++++: effect higher than that of papaverine; settings: intra-arterial, 30 mg/kg, anaesthetized dog, vs papaverine at same dose
Experimental: (3) The vasodilator activity was measured at the level of femoral artery on anaesthetized dog (technique of perfused paw). The tested substances were given intra-arterially at the rate of 30 mg/kg. Results are expressed with respect to papaverine tested at the same dose.
++: effect equal to half the effect of papaverine.
+++: effect equal to that of papaverine.
++++: effect higher than that of papaverine.

[5] = system: unanaesthetized, hypertension-suffering rat; assay: Antihypertensive activity (systolic arterial pressure), oral; format: in vivo; settings: 60 mg/kg, hypertensive rat, 3 hours
Outline: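 Conscious hypertensive rats given compound orally at 60 mg/kg; systolic arterial pressure measured every 30 min for 2 h pre-dose and 3 h post-dose. Scored O (no fall), + (<10 mm Hg), ++ (10–20 mm Hg), +++ (>20 mm Hg).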

Row | SMILES | LD50 [1] | ANTISPASMODIC ACTIVITY HIST. (dose causing complete spasm inhibition) [2] | ANTISPASMODIC ACTIVITY ACHOL (dose causing complete spasm inhibition) [3] | ANTISPASMODIC ACTIVITY BaCl2 (dose causing complete spasm inhibition) [4] | VASODILATOR ACTIVITY (femoral artery) | ANTIHYPERTENSIVE ACTIVITY [5]
1 | CC(NCCCCSc1ccccc1)C(O)c1ccc2c(c1)CCCS2 (stereo not drawn) [No 25] | > 4000 mg/kg | 0.8 μg per ml | 0.8 μg per ml | 0.8 μg per ml | – | –
2 | CCCCCCCCNC(C)C(O)c1ccc2c(c1)CCC(C)S2 (stereo not drawn) [No 4] | 4000 mg/kg | – | – | > 16.7 μg per ml | +++ | –
3 | CC(NC1CCCCCCC1)C(O)c1ccc2c(c1)CCCS2 (stereo not drawn) [No 27] | – | 1.7 μg per ml | 1.7 μg per ml | 1.7 μg per ml | ++ | –
4 | CC(NCCCCOc1ccccc1)C(O)c1ccc2c(c1)CCCS2 (stereo not drawn) [No 24] | > 4000 mg/kg | 0.33 μg per ml | 1.7 μg per ml | 1.7 μg per ml | +++ | –
5 | CC(NCCCCCc1ccccc1)C(O)c1ccc2c(c1)CCCS2 (stereo not drawn) [No 8] | – | 0.8 μg per ml | 1.7 μg per ml | 0.8 μg per ml | ++++ | –
6 | CCCCCCCCNC(C)C(O)c1ccc2c(c1)CCCCS2 (stereo not drawn) [No 11] | 3300 mg/kg | 0.8 μg per ml | 1.7 μg per ml | 3.3 μg per ml | +++ | –
7 | CC(NC1CCCCCCC1)C(O)c1ccc2c(c1)CCS2 (stereo not drawn) [No 28] | 580 mg/kg | 0.8 μg per ml | 1.7 μg per ml | 1.7 μg per ml | + | –
8 | CC(NCC(c1ccccc1)c1ccccc1)C(O)c1ccc2c(c1)CCCS2 (stereo not drawn) [No 21] | – | 0.33 μg per ml | 0.33 μg per ml | 1.7 μg per ml | +++ | –
9 | CC(NCCc1ccccc1)C(O)c1ccc2c(c1)CCCS2 (stereo not drawn) [No 13] | – | 3.3 μg per ml | 0.8 μg per ml | 3.3 μg per ml | ++ | –
10 | CCC(=O)c1ccc(OCCNC(C)C(O)c2ccc3c(c2)CC(C)S3)cc1 (stereo not drawn) [No 116] | > 4000 mg/kg | 0.17 μg per ml | 3.3 μg per ml | – | ++ | ++ (reduction of 10 to 20 mm Hg)
11 | CC(NCCCSc1ccccc1)C(O)c1ccc2c(c1)CCCS2 (stereo not drawn) [No 37] | > 4000 mg/kg | 1.7 μg per ml | 1.7 μg per ml | – | +++ | +++ (reduction higher than 20 mm Hg)
12 | CC1Cc2cc(C(O)C(C)NCCCCc3ccccc3)ccc2O1 (stereo not drawn) [No 70] | 285 mg/kg | 1.7 μg per ml | 1.7 μg per ml | – | ++ | +++ (reduction higher than 20 mm Hg)
13 | CC(NCCCSc1ccccc1)C(O)c1ccc2c(c1)CCS2 (stereo not drawn) [No 60] | > 2000 mg/kg | 3.3 μg per ml | 1.7 μg per ml | – | +++ | +++ (reduction higher than 20 mm Hg)
14 | CC(NCCc1ccccc1)C(O)c1ccc2c(c1)CCCCS2 (stereo not drawn) [No 14] | – | 1.7 μg per ml | 3.3 μg per ml | 1.7 μg per ml | +++ | –
15 | CC1CSc2ccc(C(O)C(C)NCCCCc3ccccc3)cc21 (stereo not drawn) [No 109] | ~2750 mg/kg | 0.17 μg per ml | 0.8 μg per ml | – | +++ | +++ (reduction higher than 20 mm Hg)
16 | CC(NCCCCc1ccc(Cl)cc1)C(O)c1ccc2c(c1)CCS2 (stereo not drawn) [No 29] | 1750 mg/kg | 1.7 μg per ml | 1.7 μg per ml | – | ++ | +++ (reduction higher than 20 mm Hg)
17 | CC1Cc2cc(C(O)C(C)NCCCC(=O)c3ccc(F)cc3)ccc2O1 (stereo not drawn) [No 105] | ~360 mg/kg | 3.3 μg per ml | 3.3 μg per ml | – | +++ | +++ (reduction higher than 20 mm Hg)
18 | CCC(NCCCCc1ccccc1)C(O)c1ccc2c(c1)CCS2 (stereo not drawn) [No 115] | ~2500 mg/kg | 0.8 μg per ml | 1.7 μg per ml | – | +++ | +++ (reduction higher than 20 mm Hg)
19 | CC(C(O)c1ccc2c(c1)CCC2)N1CCC(Cc2ccccc2)CC1 (stereo not drawn) [No 172] | 1900 mg/kg | 0.08 μg per ml | 1.7 μg per ml | – | ++++ | +++ (reduction higher than 20 mm Hg)
20 | CC1Cc2cc(C(O)C(C)NCCCCc3ccc(Cl)cc3)ccc2O1 (stereo not drawn) [No 65] | 160 mg/kg | 0.8 μg per ml | 1.7 μg per ml | – | +++ | +++ (reduction higher than 20 mm Hg)
21 | CCCCCCCCNC(C)C(O)c1ccc2c(c1)CC(C)O2 (stereo not drawn) [No 55] | 350 mg/kg | 3.3 μg per ml | 8.3 μg per ml | – | +++ | +++ (reduction higher than 20 mm Hg)
22 | COc1ccc(CCNC(C)C(O)c2ccc3c(c2)CCCS3)cc1OC (stereo not drawn) [No 22] | 3700 mg/kg | 3.3 μg per ml | 8.3 μg per ml | 8.3 μg per ml | – | –
23 | CC(NCCCc1ccc(Cl)cc1)C(O)c1ccc2c(c1)CCCS2 (stereo not drawn) [No 78] | 725 mg/kg | 0.8 μg per ml | 1.7 μg per ml | – | ++++ | +++ (reduction higher than 20 mm Hg)
24 | CC(NCCOc1ccccc1)C(O)c1ccc2c(c1)CCC2 (stereo not drawn) [No 168] | > 2000 mg/kg | 3.3 μg per ml | 3.3 μg per ml | – | ++++ | +++ (reduction higher than 20 mm Hg)
